According to US10125150B2, “Crystalline forms of a PI3K inhibitor” (Incyte Corporation, priority 2015, dated 2018):

Assays:
[1] = Dynamic Vapor Sorption (DVS), moisture adsorption/desorption; format: physicochemical; conditions: 25° C.
Experimental: Dynamic Vapor Sorption (DVS) was performed in an SGA-100 Symmetric Vapor Sorption Analyzer from VTI Corporation. The moisture uptake profile was completed in three cycles in 10% RH increments with the first adsorption from 25% to 95% RH, followed by desorption in 10% increments from 95% to 5% RH. The equilibration criteria were 0.0050 wt % in 5 minutes with a maximum equilibration time of 180 minutes. All adsorption and desorption were performed at room temperature (25° C.). No pre-drying step was applied for the sample.
Moisture adsorption/desorption of Form I was analyzed by DVS. […] The shapes of the isotherms indicate weak adsorbent-adsorbate interaction and a low moisture uptake at low vapor concentration.

[2] = Competitive slurry experiments (stability of the crystalline forms), solid characterized by XRPD; format: physicochemical; conditions: 50° C.
Experimental: Forms I and X of the compound of Formula I were slurried together in a methanol-ethyl acetate (1:10) solvent system and heated at 50° C. for 5 days. Specifically, 5 mL of ethyl acetate and 0.5 mL of methanol were combined and heated to 50° C. Form I (from Example 1) was added to the solvent mixture until a cloudy solution formed (about 156 mg), and then additional Form I was added (about 50 mg). Then 50 mg of Form X (prepared as described in Example 12) was added. The mixture was stirred at 50° C. for 5 days and the solid was characterized and monitored by XRPD.
Forms I to XIII of the compound of Formula I were slurried together in a methanol-ethyl acetate (1:10) solvent system at room temperature for 8 days. Specifically, 10 mg of Form I (from Example 1) was added to 1 mL of ethyl acetate with stirring. Then 0.1 mL of methanol was added giving a cloudy solution to which 3 mg of additional Form I (from Example 1) was added. […]
Forms I and X of the compound of Formula I were slurried together in acetone and heated at 50° C. overnight. […] The mixture was stirred at 50° C. overnight and the solid was characterized and monitored by XRPD.
Forms I to XIII of the compound of Formula I were slurried together in acetone at room temperature for 11 days. […] The mixture was stirred at room temperature for 11 days and the resulting solid was characterized and monitored by XRPD.

Cc1csc2nc([C@H](C)Nc3ncnc4[nH]cnc34)c(-c3cccc(F)c3)c(=O)n12 [Form I, (S)-7-(1-(9H-purin-6-ylamino)ethyl)-6-(3-fluorophenyl)-3-methyl-5H-thiazolo[3,2-a]pyrimidin-5-one]
initial water content (DVS) ([1]; no pre-drying): about 0.3% | water adsorption (DVS) ([1]; at 85% RH): 1.8% | resulting crystalline form ([2]; Forms I and X slurried in acetone, overnight): predominantly Form X | resulting crystalline form ([2]; Forms I and X slurried in methanol-ethyl acetate (1:10), 5 days): predominantly Form I
